Assay results taken from PMC11170954, “Effect of Peptide–Polymer Host–Guest Electrostatic Interactions on Self-Assembling Peptide Hydrogels Structural and Mechanical Properties and Polymer Diffusivity” (Biomacromolecules, 2024).
Ends that are not written are not given here.

Experiments:
[1] = Peptide titration with NaOH (pKa-like transitions, net charge assignment); format: physicochemical; conditions: stepwise NaOH addition to peptide solution in HPLC grade water; for first pKa-like transition (deprotonation of glutamic acid side groups), pH: start pH ∼3.2, transition observed up to this pH
Protocol: Peptide titration experiments were performed by adding 0.1 or 0.5 M NaOH solutions in 1–2 μL steps to a 1 mL HPLC-grade water peptide solution with a 2 mg mL^–1 starting concentration. After each NaOH addition, the samples were vigorously agitated using a vortex to ensure homogeneous mixing and the pH was measured using a Fisherbrand Hydrus 300 benchtop pH meter.
As stated in the introduction, these two peptides were designed to be “symmetrical” in relation to the position and distribution of their anionic (COOH/COO^–) and cationic (NH3^+/NH2) groups and to carry an overall theoretical net charge modulus of 1 at pH 7. As shown in our previous work, self-assembly can induce a shift in pKa of these ionic groups depending on the surrounding environment created.[26],[38] To investigate the effect of self-assembly on pKa of these groups, titration experiments were performed on each peptide at a […] concentration. The resulting curves are presented in Figure 2A, B. Both peptides were purchased as HCl salts; therefore, when dissolved in water low pH, ∼ 3.2, solutions were obtained. Upon addition of NaOH a first pKa-like transition was observed up to pH 5 for K(FEFK)2 and pH 4.5 for E(FKFE)2. This first transition is associated in both cases with deprotonation of the glutamic acid side groups.

[2] = Small-angle X-ray scattering of hydrogels; format: physicochemical; conditions: for fibers cross-section radius of gyration, Rσ: SAXS Guinier fit, hydrogels 6 mg mL^–1, pH 7; for estimated fiber diameter, df: from Rσ assuming cylindrical geometry
Protocol: SAXS experiments were performed on beamline I22 at the diamond light source (DLS) synchrotron (Didcot, UK).[31] The energy of the beam was 12.4 keV, corresponding to an X-ray wavelength of 0.1 nm. Quartz capillaries (1.5 mm outer diameter and 0.01 mm wall thickness) from Capillary Tube Supplies Ltd. (Bodmin, UK) were used as sample holders. The samples were prepared as described earlier and injected into the capillaries using a syringe. The sample-to-detector distance was fixed to 5.77 m, corresponding to an accessible momentum transfer vector range of 0.1 nm^–1 < q = (4π/λ) sin(θ/2) < 3.0 nm^–1, where θ is the scattering angle and λ is the wavelength of the incident photons. Calibration of the SAXS detector (Pilatus P3–2M, Dectris, Switzerland) was performed using silver behenate powder, and data were collected as 10 × 100 ms frames. Data were reduced using the Dawn software suite available from DLS.[32] The 2D isotropic scattering patterns were corrected for the detector response, dark current background, and sample transmission and then azimuthally integrated to generate 1D scattering patterns. Under these conditions, the sample coherent normalized scattering intensity IN(q) is [drawing 2] 1 where Ip(q) is the normalized intensity scattered by the sample, Is(q) is the normalized intensity scattered by the solvent in our case HPLC grade water, Cp is the peptide concentration in g cm^–3, and Ib is the background scattering originating mainly from the incoherent scattering of the peptides. Is(q) was obtained by measuring the scattering of the solvent, HPLC grade water, and Ib was estimated using the Porod law that gives the scattered intensity of a two-phase system at high q values: [drawing 3] 2 where Kp is the Porod constant. Ib was estimated by fitting the last 40 data points of the 1D scattering patter using a Porod plot [q^4I(q) vs q^4].[33]−[36]
The formation of fibers and fibrillar entangle networks was confirmed by SAXS and TEM. […] From a Guinier representation, ln qI(q) vs q^2, the fibers cross-section radius of gyration, Rσ, can be obtained. Indeed, it has been shown that for thin rod-like structures for qRσ < 1 the scattering intensity can be written as[34],[39] [drawing 4] 3
From the fitting of the linear region, Rσ values of 1.2 ± 0.2 nm for K(FEFK)2 and 1.4 ± 0.2 nm for E(FKFE)2 were obtained. Assuming a cylindrical geometry, Rσ can be related to the fiber diameter, df, through: [drawing 5] 4

[3] = TEM fiber width analysis; format: physicochemical; conditions: log-normal fit, 700 fibers, cut-off 20 nm, hydrogels 12 mg mL^–1 peptide (0.8 mg mL^–1 polymer where loaded), pH 7, diluted 20-fold
Protocol: Hydrogels were prepared as described earlier and diluted 20-fold using HPLC-grade water. The samples were vigorously mixed with a vortex to separate as much as possible the fibers. A carbon-coated copper grid (400 mesh grid Electron Microscopy Sciences, Hatfield, Pennsylvania, USA) was glow discharged and charged negatively. The carbon copper grid was then placed sequentially on a 10 μL sample droplet for 60 s, a 10 μL droplet of HPLC grade water for 10 s three times, a 10 μL droplet of 5% uranyl acetate solution for 30 s, and finally, on a 10 μL droplet of HPLC grade water for 10 s. After each step, excess liquid was drained off using lint-free tissue (90 mm Whatman 1). The grid was then left to air-dry for 2–5 min. TEM images were taken using an FEI Tecnai12 BioTwin transmission electron microscope running at 100 kV and equipped with a Gatan Orius SC1000A CCD camera. Fiber width analysis was performed by measuring randomly the widths of 700 fiber (cut-off size 20 nm) using ImageJ software across at least three TEM images for each sample.

[4] = Hydrogel behaviour in cell culture media without cells; format: physicochemical; conditions: after 14 days in cell culture media (DMEM, αMEM), no cells, 37 °C
Protocol: Rheological measurements were performed using a Discovery Hybrid 2 (DHR-2) rheometer from TA Instruments (New Castle, Delaware, USA) using a 20 mm parallel plate geometry and a 500 μm gap. Samples were prepared as described earlier. Hydrogels (200 μL) were pipetted onto the rheometer’s static bottom plate and the rheometer top plate lowered to the desired gap size. For hydrogel in cell culture inserts and conditioned with cell culture media (see below), the bottom membranes of the insets were removed, and the hydrogels deposited on the rheometer’s static bottom plate. Samples were covered with a solvent trap to avoid evaporation and left to equilibrate at 37 °C for 180 s before the experiments. Strain sweep experiments were performed at 1 Hz in the 0.01–100% strain range. The shear-thinning and recovery (i.e., injectability) experiments were performed by applying sequentially a low shear strain (0.2%) for 5 min followed by a high shear strain (1000%) for 1 min and again a low shear strain (0.2%) for 5 min.
Hydrogel samples were removed from the fridge (4 °C) and prewarmed to 37 °C. Cells were encapsulated into the hydrogel by gentle pipetting to ensure an evenly mixed sample, at a final density of 1 × 10^6 cells mL^–1. 100 μL of cell-laden hydrogel was then dispensed into ThinCert inserts (Greiner Bio-One) in 24-well plates and cell culture medium (1 mL) was added into each well/insert. […]

[5] = Swelling / stability of hydrogels in excess water; format: physicochemical; conditions: 12 mg mL^–1 peptide, 0.8 mg mL^–1 polymer where loaded, 1 mL gel + 3 mL HPLC grade water
Protocol: Hydrogels were prepared as described earlier at 12 mg mL^–1, and 1 mL was transferred into 5 mL cylindrical glass vials. Vials were gently tapped on the bench to eliminate any bubbles and obtained flat surfaces, and the height of the hydrogels was measured (day 0). Three milliliters of HPLC-grade water was then added on the top of the hydrogels. After being stored the samples for 10 days at 37 °C, the vials were inverted, and the height of the hydrogels was measured once again (day 10). The swelling ratio (Q) was defined as (H1 – H0)/H0, where H0 is the height of the hydrogel at day 0 and H1 is the height of the hydrogel at day 10.

[6] = test system: immortalized human bone marrow-derived MSC line (Y201); test: 3D cell culture, PicoGreen assay; format: cell-based; conditions: MSCs, 3D culture, over 14 days
Protocol: (§1) 3T3 mouse fibroblast and an immortalized human bone marrow-derived MSC line (Y201)[37] were used to assess the cytocompatibility of the hydrogels. The 3T3 cells were cultured in Dulbecco’s Modified Eagle’s Medium (DMEM) (Gibco), 1% penicillin–streptomycin (Sigma–Aldrich, P0781), and 10% fetal bovine serum (Sigma–Aldrich, F9665), while the MSCs were cultured in Minimum Essential Medium Eagle (αMEM) (Sigma-Aldrich, M4526), 10% fetal bovine serum (Sigma–Aldrich, F7524), 1% antibiotic/antimycotic solution (Sigma–Aldrich, A5955), 1% GlutaMAX (Life Technologies, 35050038), and 0.01% L-ascorbic acid 2-phosphate (Sigma–Aldrich, A8960). Cells were harvested when reaching 70–80% confluency. For cell counting, the cell suspension was mixed (1:1 ratio) with a 0.4% trypan blue solution (Bio-Rad) and cell counted using an automated cell counter (Cellometer Auto 1000, Nexcelom).
(§2) Hydrogel samples were removed from the fridge (4 °C) and prewarmed to 37 °C. Cells were encapsulated into the hydrogel by gentle pipetting to ensure an evenly mixed sample, at a final density of 1 × 10^6 cells mL^–1. 100 μL of cell-laden hydrogel was then dispensed into ThinCert inserts (Greiner Bio-One) in 24-well plates and cell culture medium (1 mL) was added into each well/insert. 250 μL was added to the top of the hydrogel surface in the inset, and 750 μL was added to the well. Cell culture plates were then incubated at 37 °C with 5% of the CO2. The growth medium was changed every 20 min during the first hour of the experiment and subsequently every 2 days.
(§3) To quantify the number of cells present in the hydrogels, the amount of cells’ dsDNA was quantified via PicoGreen assay (Invitrogen, Thermo Fisher Scientific). […] When ready for analysis, the samples were removed from the −20 °C freezer, thawed at room temperature, and agitated until homogeneous. […] The assay plate was incubated at room temperature in the dark for 5 min then measured using a plate reader (CLARIOstar), using fluorescence detection with excitation at 480–512 nm and emission at 520 nm. […]

[7] = test system: immortalized human bone marrow-derived MSC line (Y201); format: cell-based
Protocol: as §1, §2
To assess cell viability in the hydrogels, the live/dead assay (Thermo Fisher Scientific) was used. The cell culture medium was removed, and the samples were washed 3 times with DPBS. A working solution of staining reagent was prepared in DPBS (4 μM ethidium homodimer I and 2 μM calcein-AM) and 100 μL was added to the top of the hydrogel surfaces (in the insets) and a further 600 μL into the wells. […]

[8] = test system: 3T3 mouse fibroblast; test: 3D cell culture, PicoGreen assay; format: cell-based; conditions: 3T3 fibroblasts, 3D culture, 14 days; hydrogel prepared at 20 mg mL^–1
Protocol: as §1, §2, §3

| Sequence | pKa-like transition assigned to deprotonation of lysine side chain amino groups, pH from which upward [1] | first pKa-like transition (deprotonation of glutamic acid side groups), pH [1] | fibers cross-section radius of gyration, Rσ [2] | estimated fiber diameter, df [2] | fiber widths distribution maximum [3] | hydrogel integrity when extracted from cell culture inserts [4] | hydrogel stability in excess water ([5]; 10 days, 37 °C) | change in cell number (PicoGreen) [6] | cell viability (live/dead) [7] | hydrogel stability in MSC culture ([7]; after 14 days of 3D culture with MSCs) | shift of terminal NH3+ apparent pKa vs theoretical | swelling ([5]; day 10, 37 °C) | cell proliferation (cell number, PicoGreen) [8] |
| --- | --- | --- | --- | --- | --- | --- | --- | --- | --- | --- | --- | --- | --- |
| EFKFEFKFE [E(FKFE)2] | ≥ 10.0 pH | ≤ 4.5 pH | 1.4 ± 0.2 nm | 4.0 ± 0.5 nm | 4.5 ± 0.9 nm | some loss of integrity and loss of shape | unstable and after 10 days dissolved | decrease in cell number | higher | dissolve | 1 unit |  |  |
| KFEFKFEFK [K(FEFK)2] | ≥ 9.5 pH | ≤ 5 pH | 1.2 ± 0.2 nm | 3.3 ± 0.5 nm | 4.9 ± 1.0 nm | keep their integrity and shape |  | no significant change in cell number | good |  |  | ~30 % (v/v) | Significant proliferation |
